From US9670217B2, “Process for preparing chlorins and their pharmaceutical uses” (UNIVERSIDADE DE COIMBRA, priority 2008, dated 2017) come the findings set out here.

The structures appear in SMILES notation.

In series [1] the test system is A-549 (human non-small cell lung cancer). In words: Cytotoxicity in the dark, resazurin assay. The settings on record: A-549, dark. On the set-up: unit not given here. Type of series: cell-based. As for the experimental part:
The cell lines employed in laser irradiation were the HT-29 (human colon carcinoma), PC-3 (human prostate carcinoma), SW2 (human small cell lung cancer), A-549 (human non-small cell lung cancer). S91/I3 (mouse melanoma) and CT26 (mouse colon carcinoma). They were used both for cytotoxicity and photocytotoxicity experiments. PC-3. SW2 and S91113 cells were cultured in RPMI-1640 medium (Sigma-Aldrich, Steinheim, Germany) and HT-29, A-549 and CT26 cells were cultured in Dulbecco's Modified Eagle Medium (DMEM) (Cambrex Bioscience, Verviers, Belgium). […] For the in vitro studies, cells at 85-90% confluence, were detached with Trypsin-Versene-EDTA solution (Cambrex Bioscience, Verviers, Belgium), counted and seeded in flat-bottom 96-well plates at the desired densities.
Cell viability assay. In the end of the experiences cell viability was evaluated by the resazurin reduction assay. […] The absorbance values of each well were measured at 540 nm and 630 nm using a microplate reader Multiskan Ex (Thermo-Electron Corporation, Vartaa, Finland).
Cytotoxicity. […] After the incubation the cell viability was evaluated. […] Cytotoxicity was quantified by expressing cell death relatively to untreated cells (% of control cells). […]

For series [2], the system named is PC-3 (human prostate carcinoma). The series is described as follows: Cell photosensitization, 748 nm diode laser, resazurin. The format is cell-based. Particulars: 6 J/cm^2 diode laser irradiation at 28.5 mW. In general terms: The colour change of resazurin is a common sign of viable cells or microbes.
Series [3] in a line: n-octanol:water partition coefficient (shake-flask). Type of series: physicochemical. As for the experimental part: The n-octanol:water partition coefficients (CP) were measured using a minor modification of the shake-flask method described by some of us in the literature. The modification concerned the excitation of the absorption band ca 500 nm and the collection of the fluorescence in the red/IR region.

Series [4] can be described thus: Absorption spectra (λmax, molar absorption coefficient). The format is physicochemical. The settings on record: ethanol solutions. As for the experimental part: Absorption spectra were recorded on a Shimadzu UV-2100 spectrophotometer or with a Carry 50 Biospectrophotometer (Varian, Mulgrave, USA). Fluorescence spectra were measured with a Spex Fluorolog 3 spectrophotometer, with correction for the wavelength dependence system (RCA C31034 photomultiplier), or with a PerkinElmer LS 50 spectrofluorimeter. Transient absorption spectra were measured with an Applied Photophysics LKS 60 nanosecond laser flash photolysis kinetic spectrometer, using the third harmonic of a Spectra-Physics Quanta Ray GCR 130-01 Nd/YAG laser for excitation, a Hamamatsu 1P28 photomultiplier and a Hewlett-Packard Infinium oscilloscope (1 GS/s). Flash photolysis measurements were made in the presence of air and in argon saturated solutions. Photoacoustic calorimetry employed the same Nd/YAG laser, a home-made front-face photoacoustic cell with a 2.25 MHz Panametrics transducer (model 5676) and a Tektronix DSA 601 transient recorder. Room-temperature singlet-oxygen phosphorescence was measured at 1270 nm with a Hamamatsu R5509-42 photomultiplier, cooled to 193 K in a liquid nitrogen chamber (Products for Research model PC176TSCE005), following laser excitation of aerated solutions at 355 nm, using an adapted Applied Photophysics spectrometer. Singlet oxygen emission at 1270 nm was also monitored with a liquid nitrogen-cooled germanium detector (North Coast) coupled to a Tectronix Digitizing scope (TDS 520B), following sample excitation with 5 ns laser pulses of the third harmonic (355 nm) generated by a Q-switched Nd:YAG laser (Continuum Surelite II).
This is indicative of little aggregation between the molecules, which exist mostly as monomers at these concentrations in the solvents studied. Table 1 presents typical red and infrared molar absorption coefficients (εmax) and wavelength maxima. The same table also presents representative fluorescence quantum yields (ΦF) of Luzitins. The fluorescence quantum yields decrease of these molecules decrease in the presence of chlorine substituents, a fingerprint of the heavy atom effect expected for such molecules.

Series [5] can be described thus: Photobleaching under 748 nm diode laser irradiation. Type of series: physicochemical. The settings on record: PBS:methanol; 100 mW laser irradiation at 748 nm. The text has this:
The irradiation of bacteriochlorins in the photobleaching experiments employed the 748 nm Lynx diode laser. For animal studies we employed a costumer-made Hamamatsu diode laser, type LA0873. S/N M070301, which delivered 140 mW at 748 nm. This diode laser was controlled by a ThorLabs 500 mA ACC/APC Laser Diode Controller and in-house electronics. The laser energies of this and the other higher-energy lasers employed in this work were regularly checked with an Ophir model AN/2E laser power meter.
Photobleaching experiments were conducted in PBS. PBS:methanol (50:50) and methanol solutions. The solutions were irradiated in a cuvette with an optical path of 1 cm and the Lynx diode laser. The initial absorption of the solutions was ca. 0.8. The mechanism of photobleaching was assessed with the irradiation of the sensitizer using the Hamamatsu diode laser at 80 mW. The sensitizer was irradiated in PBS and in the presence of ascorbic acid or azide.
The chemical stability of the compounds was studied exposing them to light, air, and pH changes. The most significant degradation occurs for aerated solutions irradiated by light of the appropriate wavelength. In such circumstances the photobleaching of the compounds follows a first-order rate and is proportional to the energy of the incident laser light. In general, it was also observed that the photobleaching rate increases with the amount of water present in the solution. Bennett reported the photoconversion of Foscan® (m-THPC) and of the analogous bacteriochlorin (m-THPB) in PBS:methanol (50:50). Scherz reported the photoconversion of Tookad® in acetone and Triton-X:PBS [3]. For the purpose of comparing the photostability of Luzitins with that of Foscan® and Tookad®, we present in Table 2 the half-lives (t1/2) of representative drugs described herein, together with those of Foscan and Tookad® normalized for a laser power of 100 mW.
Luzitin-FMet was dissolved in PBS:methanol (2:3), transferred to a 1 cm quartz cell and its absorption spectrum was registered, FIG. 6. The quartz cell was then placed in the beam of the 748 nm Lynx diode laser, previously unfocused to have a beam diameter coincident with the window of the quartz cell. The laser power measured under these conditions was 28.8 mW. Every 5 minutes the irradiation was interrupted and a new absorption spectrum was registered. This procedure was followed for 65 minutes. The photobleaching follows the kinetics of a first-order reaction in the time window of the experiment. […] Whereas the bacteriochlorin peak at 743 nm is reduced from an absorbance of 1.128 to 0.337, the absorption of the chlorin only increases from 0.114 to 0.151. Taking into consideration the molar absorption coefficients of the compounds at these wavelengths, it is clear that whereas 70% of the bacteriochlorin is destroyed during the irradiation, only a few percent of chlorin are formed.
The half-lives of other bacteriochlorins normalized 100 mW laser irradiation at 748 nm are presented in […], together with the literature data for the photodegradation of Foscan® and Tookad® normalized for the same light intensity. It was also observed that the half-live to Luzitin-Cl is increased by a factor of 30 when the PBS solution of the photosensitizer is saturated with Argon, which reduces the oxygen concentration in the solution.

The subject of series [6] is A-549 (human non-small cell lung carcinoma). In words: Cell photosensitization, 748 nm diode laser, resazurin. The format is cell-based.
Series [7] relates to CT26 (murine colon carcinoma). The description is as above. Type of series: cell-based, mouse. The settings on record: 6 J/cm^2 diode laser irradiation at 28.5 mW.

As for `CNS(=O)(=O)c1ccc(F)c(-c2c3nc(c(-c4c(F)ccc(S(=O)(=O)NC)c4F)c4ccc([nH]4)c(-c4c(F)ccc(S(=O)(=O)NC)c4F)c4nc(c(-c5c(F)ccc(S(=O)(=O)NC)c5F)c5ccc2[nH]5)CC4)CC3)c1F` [Luzitin-F2Met, 5,10,15,20-tetrakis(2,6-fluoro-3-N-methylsulfamoylphenyl)bacteriochlorin], the “highest concentration that causes relatively no effect in viability in the dark” value in series [1] is listed as 50. Besides, the “concentration of sensitizer required to kill 90% of cells (LD90)” value stood at 0.5 µM in series [2], 0.5 µM in series [6] (6 J/cm^2 diode laser irradiation at 28.5 mW) and 1.0 µM in series [7]. For the same compound, the “log KOW (n-octanol:water partition coefficient)” value in series [3] is 2.7. This compound came in with a λmax in series [4] of 742.5 nm. Further, the εmax in series [4] (corrected for the chlorin content) is 78,000^d) M^−1 cm^−1. Moreover, the “t1/2 (photobleaching half-life)” value in series [5] is given as 6,480 sec. Also, the cell kill in series [6] (0.5 μM, laser light dose 6 J/cm^2, incubation 18 hours) was found to be 100%.
